Read-outs that look alike come from different tables or passages of the source. No end group written: not given here.
How the values were obtained:
Kv1.3 = details: read-out: IC50 as Kv1.3 inhibitor; cited from earlier work
Text: Here, the Kv1.3 channel-sensitive hBD2 was used as the molecular template to search potential mouse β-defensin from the biological databases. […] Besides the sequence similarity, the distribution of six cysteine amino acid residues was also identical. In order to better understand the structural feature of mBD3, its structure was modeled by the tem ...

mouse Kv1.1 channel = assay: Whole-cell patch clamp, mouse Kv1.1 channel in HEK293 cells; type: cell-based; details: 1 μM rmBD3, mean ± SE, at least three times, SEM
Procedure: (§1) Human embryonic kidney 293 (HEK293) cells were cultured Dulbecco’s modified Eagle medium (Thermo Fisher Scientific, Pittsburgh, PA. USA) with 10% heat-inactivated fetal calf serum supplemented with penicillin (100 units/mL) and streptomycin (100 μg/mL) in a humidified 5% CO2 incubator at 37 °C. Plasmids were transfected into HEK293 cells using the TurboFect in vitro Transfection Reagent (Thermo Fisher Scientific, Pittsburgh, PA, USA). Potassium currents were recorded after transfection for 1 to 3 days and positive cells were selected based on the presence of GFP fluorescence.
(§2) Electrophysiological experiments were carried out at room temperature using the whole-cell recording mode by EPC10 patch clamp amplifier (Heka Elektronik, Lambrecht, Germany), which was controlled by Patchmaster software version 2 × 65 (Heka Elektronik, Holliston, MA, USA). For all the channels, HEK293 cells were bathed with mammalian Ringer’s solution contained 5 mM KCl, 140 mM NaCl, 10 mM HEPES, 2 mM CaCl2, 1 mM MgCl2 and 10 mM D-glucose (pH adjusted to 7.4 with NaOH). When rmBD3 was applied, 0.01% BSA was added to the Ringer’s solution. A multichannel microperfusion system MPS-2 (INBIO Inc., Wuhan, China) was used to exchange the external recording bath solution. […] The currents through Kv channels and KCNQ1/KCNE1 channel were recorded according to previously published references. […]

mouse Kv1.2 channel = assay: Whole-cell patch clamp, mouse Kv1.2 channel in HEK293 cells; type: cell-based; details: 1 μM rmBD3, mean ± SE, at least three times, SEM
Procedure: as §1, §2

mouse Kv1.3 channel = assay: Whole-cell patch clamp, mouse Kv1.3 channel in HEK293 cells; type: cell-based; details: 1 μM rmBD3, mean ± SE, at least three times, SEM
Procedure: as §1, §2

mouse Kv1.6 channel = assay: Whole-cell patch clamp, mouse Kv1.6 channel in HEK293 cells; type: cell-based; details: mean ± SE, SEM; for inhibition of mouse Kv1.6 channel currents: at least three times
Procedure: as §1
(§3) Electrophysiological experiments were carried out at room temperature using the whole-cell recording mode by EPC10 patch clamp amplifier (Heka Elektronik, Lambrecht, Germany), which was controlled by Patchmaster software version 2 × 65 (Heka Elektronik, Holliston, MA, USA). For all the channels, HEK293 cells were bathed with mammalian Ringer’s solution contained 5 mM KCl, 140 mM NaCl, 10 mM HEPES, 2 mM CaCl2, 1 mM MgCl2 and 10 mM D-glucose (pH adjusted to 7.4 with NaOH). When rmBD3 was applied, 0.01% BSA was added to the Ringer’s solution. A multichannel microperfusion system MPS-2 (INBIO Inc., Wuhan, China) was used to exchange the external recording bath solution. The internal pipette solution contains 140 mM KCl, 1 mM MgCl2, 1 mM EGTA, 1 mM Na2ATP and 5 mM HEPES (pH adjusted to 7.4 with NaOH). All channel currents were elicited by depolarizing voltage steps of 200 ms from the holding potential −80 mV to +50 mV. Currents were typically digitized at 20 kHz and filtered at 2.9 kHz (Bessel). Electrode resistances were 3.0–5.0 MΩ, and the series resistance was usually compensated by 85%. The currents through Kv channels and KCNQ1/KCNE1 channel were recorded according to previously published references.
(§4) The IC50 values were obtained by fitting a modified Hill equation to the data with the formula: IrmBD3/Icontrol = 1/(1 + [rmBD3]/IC50), where [rmBD3] is the concentration of rmBD3, IrmBD3 and Icontrol are the peak currents in the presence and absence of rmBD3 at four different concentrations. The conductance of mouse Kv1.6 channel was calculated by the formula: G = Ipeak/(V − EKv1.6), where Ipeak is the peak current, EKv1.6 is the reversal potential of the Kv1.6 channel. The conductance-voltage (G-V) curves were generated by the measured peak currents and fitted with a V50-V equation using the formula: G/Gmax = 1/(1 + exp [(V − V50)/k]), where G is the conductance of the channels, Gmax is the maximal channel conductance, V is the membrane voltage, V50 is the voltage of half-maximal activation, and k is the slope factor. The data were presented as the means ± SE of at least three times repeated experiments. Sigmaplot 12.5 and GraphPad Prism 5 software were used for analysis.

human Kv1.1 channel = assay: Whole-cell patch clamp, human Kv1.1 channel in HEK293 cells; type: cell-based; details: 1 μM rmBD3, mean ± SE, at least three times, SEM
Text: (§5) The pRc/CMV-hKv1.3 vector was kindly provided by Prof. Stephan Grissmer (University of Ulm, Ulm, Germany) and Prof. Olaf Pongs (Zentrum für Molekulare Neurobiologie der University Hamburg, Hamburg, Germany). The cDNAs encoding human Kv1.1, Kv1.2, hERG and KCNQ1/KCNE1 channels were subcloned into the vector pIRES2-EGFP (TaKaRa Clontech, Mountain View, CA, USA) for coexpression with the green fluorescent protein (GFP), and the other channels were subcloned into vector pcDNA 3.1(+) (TaKaRa Clontech, Mountain View, CA, USA) for coexpression with GFP. The constructs were verified by DNA sequencing (Sangon Biotech, Shanghai, China). The mutants Asp400, Asp401, Val402, Asp403, Asp411, Met428 and Tyr429 on the pore region of wild type mouse Kv1.6 channel plasmids were mutated into Ala with QuikChange Site-Directed Mutagenesis Kit (Agilent Stratagene, Santa Clara, CA, USA). All the mutants were verified by DNA sequencing before being used (Sangon Biotech, China).
(§6) Human embryonic kidney 293 (HEK293) cells were cultured Dulbecco’s modified Eagle medium (Thermo Fisher Scientific, Pittsburgh, PA. USA) with 10% heat-inactivated fetal calf serum supplemented with penicillin (100 units/mL) and streptomycin (100 μg/mL) in a humidified 5% CO2 incubator at 37 °C. […] Potassium currents were recorded after transfection for 1 to 3 days and positive cells were selected based on the presence of GFP fluorescence. […]

human Kv1.2 channel = assay: Whole-cell patch clamp, human Kv1.2 channel in HEK293 cells; type: cell-based; details: 1 μM rmBD3, mean ± SE, at least three times, SEM
Text: as §5, §6

human Kv1.3 channel = assay: Whole-cell patch clamp, human Kv1.3 channel in HEK293 cells; type: cell-based; details: 1 μM rmBD3, mean ± SE, at least three times, SEM
Text: as §5, §6

human Kv1.6 channel = assay: Whole-cell patch clamp, human Kv1.6 channel in HEK293 cells; type: cell-based; details: 1 μM rmBD3, mean ± SE, at least three times, SEM
Procedure: as §1, §2

human Kv3.2 channel = assay: Whole-cell patch clamp, human Kv3.2 channel in HEK293 cells; type: cell-based; details: 1 μM rmBD3, mean ± SE, at least three times, SEM
Procedure: as §1, §2

[1] = test system: human KCNQ1/KCNE1 channel; type: cell-based; details: HEK293 cells, mean ± SE, SEM; for inhibition of human KCNQ1/KCNE1 channel currents: at least three times
Text: as §5, §1
as §3, with “Electrode resistances were 3.0–5.0 MΩ, and the series resistance was usually compensated by 85%.” left out
as §4, with “The data were presented as the means ± SE of at least three times repeated experiments. Sigmaplot 12.5 and GraphPad Prism 5 software were used for analysis.” left out

human KCNQ1 channel = type: cell-based; details: 1 μM rmBD3; HEK293 cells; mean ± SE, at least three times; SEM
Procedure: as §1, §2

hERG channel = type: cell-based, human; details: 1 μM rmBD3; HEK293 cells; mean ± SE, at least three times; SEM
Text: as §5, §6

Kv1.6-D400A channel = assay: Patch clamp, mouse Kv1.6 pore region mutant D400A; type: cell-based; details: 1 μM rmBD3; HEK293 cells; mean ± SE, at least three times; SEM
Text: as §5, §6

Kv1.6-D401A channel = assay: Patch clamp, mouse Kv1.6 pore region mutant D401A; type: cell-based; details: 1 μM rmBD3; HEK293 cells; mean ± SE, at least three times; SEM
Text: as §5, §6

Kv1.6-V402A channel = assay: Patch clamp, mouse Kv1.6 pore region mutant V402A; type: cell-based; details: 1 μM rmBD3; HEK293 cells; mean ± SE, at least three times; SEM
Text: as §5, §6

Kv1.6-D403A channel = assay: Patch clamp, mouse Kv1.6 pore region mutant D403A; type: cell-based; details: 1 μM rmBD3; HEK293 cells; mean ± SE, at least three times; SEM
Text: as §5, §6

Kv1.6-D411A channel = assay: Patch clamp, mouse Kv1.6 pore region mutant D411A; type: cell-based; details: 1 μM rmBD3; HEK293 cells; mean ± SE, at least three times; SEM
Text: as §5, §6

Kv1.6-M428A channel = assay: Patch clamp, mouse Kv1.6 pore region mutant M428A; type: cell-based; details: 1 μM rmBD3; HEK293 cells; mean ± SE, at least three times; SEM
Text: as §5, §6

Kv1.6-Y429A channel = assay: Patch clamp, mouse Kv1.6 pore region mutant Y429A; type: cell-based; details: 1 μM rmBD3; HEK293 cells; mean ± SE, at least three times; SEM
Text: as §5, §6

For human β-defensin 2 [hBD2], the IC50 (Kv1.3) is given as 0.022 nM.
With “mouse β-defensin 3 (KKINNPVSCLRKGGRCWNRCIGNTRQIGSCGVPFLKCCKRK; ends and bridges not checked; cysteine pairing not given here; UniProt Q9WTL0 23-63, looked up) [rmBD3, Recombinant mouse β-defensin 3 expressed in E. coli, cleaved from His-tag fusion by Enterokinase, HPLC purified]” the “inhibition of mouse Kv1.1 potassium currents” value (mouse Kv1.1 channel) was 19.0 ± 2.2%, the “inhibition of mouse Kv1.2 potassium currents” value (mouse Kv1.2 channel) was 4.9 ± 0.6% and the “inhibition of mouse Kv1.3 potassium currents” value (mouse Kv1.3 channel) was 14.0 ± 3.7%. For the same substance, the “inhibition of mouse Kv1.6 channel currents” value (mouse Kv1.6 channel; 1 nM rmBD3, HEK293 cells) was 18.1 ± 2.4%, the “inhibition of mouse Kv1.6 channel currents” value (mouse Kv1.6 channel; 10 nM rmBD3, HEK293 cells) was 26.4 ± 1.8% and the “inhibition of mouse Kv1.6 channel currents” value (mouse Kv1.6 channel; 1 μM rmBD3, HEK293 cells, whole-cell patch clamp) was 56.1 ± 4.2%. The “inhibition of mouse Kv1.6 channel currents” value (mouse Kv1.6 channel; 10 μM rmBD3, HEK293 cells) was 73.1 ± 2.2%, the IC50 (mouse Kv1.6 channel; Hill equation fitting, four concentrations, HEK293 cells, read-out: IC50, mouse Kv1.6 channel currents) was 600 ± 400 nM and the “k (slope factor) of activation G-V curve of Kv1.6 channel in the presence of rmBD3” value (mouse Kv1.6 channel; after treatment with 1 μM rmBD3 (control 6.8 ± 0.6), Boltzmann fitting) was 6.5 ± 0.4. The “V50 of activation G-V curve of Kv1.6 channel in the presence of rmBD3” value (mouse Kv1.6 channel; after treatment with 1 μM rmBD3 (control −23.8 ± 0.7 mV), Boltzmann fitting) was −18.8 ± 0.5 mV, the “inhibition of human Kv1.1 potassium currents” value (human Kv1.1 channel) was 8.8 ± 3.0% and the “inhibition of human Kv1.2 potassium currents” value (human Kv1.2 channel) was 9.3 ± 0.8%. The “inhibition of human Kv1.3 potassium currents” value (human Kv1.3 channel) was 14.6 ± 0.9%, the “inhibition of human Kv1.6 potassium currents” value (human Kv1.6 channel) was 31.2 ± 3.6% and the “inhibition of human Kv3.2 potassium currents” value (human Kv3.2 channel) was 11.6 ± 1.3%. For the same substance, the “inhibition of human KCNQ1/KCNE1 channel currents” value ([1]; 10 nM rmBD3) was 21.8 ± 3.6%, the “inhibition of human KCNQ1/KCNE1 channel currents” value ([1]; 100 nM rmBD3) was 32.4 ± 1.8% and the “inhibition of human KCNQ1/KCNE1 channel currents” value ([1]; 1 μM rmBD3) was 46.3 ± 4.2%. For the same substance, the “inhibition of human KCNQ1/KCNE1 channel currents” value ([1]; 10 μM rmBD3) was 68.8 ± 3.8%, the IC50 ([1]; Hill equation fitting, four concentrations, read-out: IC50, human KCNQ1/KCNE1 channel currents) was 1200 ± 800 nM and the “inhibition of human KCNQ1 channel currents” value (human KCNQ1 channel) was 26.1 ± 4.8%. For the same substance, the “inhibition of hERG potassium currents” value (hERG channel) was 14.7 ± 3.9%, the “inhibition of mutant Kv1.6-D400A channel” value (Kv1.6-D400A channel) was 54.9 ± 1.9% and the “inhibition of mutant Kv1.6-D401A channel” value (Kv1.6-D401A channel) was 20.7 ± 4.5%. The “inhibition of mutant Kv1.6-V402A channel” value (Kv1.6-V402A channel) was 21.8 ± 4.5%, the “inhibition of mutant Kv1.6-D403A channel” value (Kv1.6-D403A channel) was 35.6 ± 1.0% and the “inhibition of mutant Kv1.6-D411A channel” value (Kv1.6-D411A channel) was 43.2 ± 3.5%. For the same substance, the “inhibition of mutant Kv1.6-M428A channel” value (Kv1.6-M428A channel) was 39.3 ± 1.8% and the “inhibition of mutant Kv1.6-Y429A channel” value (Kv1.6-Y429A channel) was 36.7 ± 2.0%.
In the case of “hBD1: human β-defensin, Kv1.3 channel blocker binding the pore region (DHYNCVSSGGQCLYSACPIFTKIQGTCYRGKAKCCK; ends and bridges not checked; cysteine pairing not given here; UniProt P60022 33-68, looked up)”, the IC50 (Kv1.3) is given as 11800 nM.
